How the values were obtained:
[1] = target: CDK4/Cyclin D3 (Homo sapiens) (UniProt P11802+P30281); test: Inhibition of wild-type human full length CDK4/cyclinD3 (M1 to E303 residues) expressed in mammalian expression system assessed as residual activity at 50 nM by Kinomescan method relative to control
[2] = target: Ephrin type-A receptor 7 (Homo sapiens) (UniProt Q15375); test: Inhibition of wild-type human partial length EPHA7 (Y608 to S912 residues) expressed in bacterial expression system assessed as residual activity at 50 nM by Kinomescan method relative to control
[3] = target: Mitogen-activated protein kinase kinase kinase kinase 2 (Homo sapiens) (UniProt Q12851); test: Inhibition of human GCK (M1 to G318 residues) expressed in mammalian expression system assessed as residual activity at 50 nM by KINOMEscan assay relative to control
[4] = target: Cyclin-dependent kinase-like 3 (Homo sapiens) (UniProt Q8IVW4); test: Inhibition of wild-type human partial length CDKL3 (M1 to D327 residues) expressed in bacterial expression system assessed as residual activity at 50 nM by Kinomescan method relative to control
[5] = target: Dual specificity protein kinase TTK (Homo sapiens) (UniProt P33981); test: Inhibition of wild-type human partial length TTK (N505 to V798 residues) expressed in bacterial expression system assessed as residual activity at 50 nM by Kinomescan method relative to control
[6] = target: Myosin light chain kinase (Homo sapiens) (UniProt Q32MK0); test: Inhibition of wild-type human partial length CAMLCK (D488 to K800 residues) expressed in bacterial expression system assessed as residual activity at 50 nM by Kinomescan method relative to control
[7] = target: Cyclin-dependent kinase 4/cyclin D1 (Homo sapiens) (UniProt P11802+P24385); test: Inhibition of wild-type human full length CDK4/cyclinD1 (M1 to E303 residues) expressed in mammalian expression system assessed as residual activity at 50 nM by Kinomescan method relative to control
[8] = target: Serine/threonine-protein kinase BRSK1 (Homo sapiens) (UniProt Q8TDC3); test: Inhibition of wild-type human partial length BRSK1 (M1 to E754 residues) expressed in bacterial expression system assessed as residual activity at 50 nM by Kinomescan method relative to control
[9] = target: Phosphatidylinositol 4-phosphate 3-kinase C2 domain-containing subunit beta (Homo sapiens) (UniProt O00750); test: Inhibition of wild-type human partial length PI3KC2B (M1 to L1634 residues) expressed in mammalian expression system assessed as residual activity at 50 nM by Kinomescan method relative to control
[10] = target: Rho-associated protein kinase 2 (Homo sapiens, UniProt O75116); test: Inhibition of human ROCK2 (M1 to T431 residues) expressed in mammalian expression system assessed as residual activity at 50 nM by KINOMEscan assay relative to control
[11] = target: Mitogen-activated protein kinase 10 (Homo sapiens) (UniProt P53779); test: Inhibition of wild-type human partial length JNK3 (V28 to Q422 residues) expressed in mammalian expression system assessed as residual activity at 50 nM by Kinomescan method relative to control
JAK3/JAK1 = JAK3/JAK1 (Homo sapiens, UniProt P23458+P52333); test: Inhibition of JAK1/JAK3 in human whole blood assessed as reduction in IL-2 induced IFN-gamma production after 18 hrs by ELISA; format: protein-complex assay
[12] = target: Tyrosine-protein kinase Tec (Homo sapiens) (UniProt P42680); test: Inhibition of wild-type human partial length TEC (L341 to D620 residues) expressed in bacterial expression system assessed as residual activity at 50 nM by Kinomescan method relative to control
[13] = target: Serine/threonine-protein kinase B-raf (Homo sapiens) (UniProt P15056); test: Inhibition of wild-type human partial length BRAF (S429 to E741 residues) expressed in mammalian expression system assessed as residual activity at 50 nM by Kinomescan method relative to control
[14] = target: Cytoplasmic tyrosine-protein kinase BMX (Homo sapiens) (UniProt P51813); test: Inhibition of wild-type human full length BMX (M1 to H675 residues) expressed in bacterial expression system assessed as residual activity at 50 nM by Kinomescan method relative to control
[15] = target: Mitogen-activated protein kinase 15 (Homo sapiens) (UniProt Q8TD08); test: Inhibition of wild-type human partial length ERK7 (M1 to P437 residues) expressed in bacterial expression system assessed as residual activity at 50 nM by Kinomescan method relative to control
[16] = target: Serine/threonine-protein kinase Chk2 (Homo sapiens) (UniProt O96017); test: Inhibition of wild-type human partial length CHK2 (S253 to E574 residues) expressed in bacterial expression system assessed as residual activity at 50 nM by Kinomescan method relative to control
[17] = target: Mitogen-activated protein kinase kinase kinase 9 (Homo sapiens) (UniProt P80192); test: Inhibition of wild-type human partial length MLK1 (V88 to W426 residues) expressed in bacterial expression system assessed as residual activity at 50 nM by Kinomescan method relative to control
[18] = target: Bone morphogenetic protein receptor type-1B (Homo sapiens) (UniProt O00238); test: Inhibition of wild-type human partial length BMPR1B (D178 to L502 residues) expressed in mammalian expression system assessed as residual activity at 50 nM by Kinomescan method relative to control
[19] = target: Serine/threonine-protein kinase 32B (Homo sapiens) (UniProt Q9NY57); test: Inhibition of wild-type human full length YANK2 (M1 to S414 residues) expressed in bacterial expression system assessed as residual activity at 50 nM by Kinomescan method relative to control
[20] = target: Epithelial discoidin domain-containing receptor 1 (Homo sapiens) (UniProt Q08345); test: Inhibition of wild-type human partial length DDR1 (R565 to V876 residues) expressed in bacterial expression system assessed as residual activity at 50 nM by Kinomescan method relative to control
[21] = target: Dual specificity protein kinase CLK3 (Homo sapiens) (UniProt P49761); test: Inhibition of wild-type human full length CLK3 (M1 to R490 residues) expressed in bacterial expression system assessed as residual activity at 50 nM by Kinomescan method relative to control
[22] = target: Hepatocyte growth factor receptor (Homo sapiens) (UniProt P08581); test: Inhibition of wild-type human partial length MET (D1010 to S1367 residues) expressed in bacterial expression system assessed as residual activity at 50 nM by Kinomescan method relative to control
[23] = target: Inhibitor of nuclear factor kappa-B kinase subunit alpha (Homo sapiens) (UniProt O15111); test: Inhibition of wild-type human full length IKK-alpha (M1 to E745 residues) expressed in mammalian expression system assessed as residual activity at 50 nM by Kinomescan method relative to control
[24] = target: Serine/threonine-protein kinase ULK2 (Homo sapiens) (UniProt Q8IYT8); test: Inhibition of wild-type human partial length ULK2 (M1 to S301 residues) expressed in mammalian expression system assessed as residual activity at 50 nM by Kinomescan method relative to control
Chain of Serine/threonine-protein kinase ULK2 (Homo sapiens) (Q8IYT8 whole entry, the tested form may be a part): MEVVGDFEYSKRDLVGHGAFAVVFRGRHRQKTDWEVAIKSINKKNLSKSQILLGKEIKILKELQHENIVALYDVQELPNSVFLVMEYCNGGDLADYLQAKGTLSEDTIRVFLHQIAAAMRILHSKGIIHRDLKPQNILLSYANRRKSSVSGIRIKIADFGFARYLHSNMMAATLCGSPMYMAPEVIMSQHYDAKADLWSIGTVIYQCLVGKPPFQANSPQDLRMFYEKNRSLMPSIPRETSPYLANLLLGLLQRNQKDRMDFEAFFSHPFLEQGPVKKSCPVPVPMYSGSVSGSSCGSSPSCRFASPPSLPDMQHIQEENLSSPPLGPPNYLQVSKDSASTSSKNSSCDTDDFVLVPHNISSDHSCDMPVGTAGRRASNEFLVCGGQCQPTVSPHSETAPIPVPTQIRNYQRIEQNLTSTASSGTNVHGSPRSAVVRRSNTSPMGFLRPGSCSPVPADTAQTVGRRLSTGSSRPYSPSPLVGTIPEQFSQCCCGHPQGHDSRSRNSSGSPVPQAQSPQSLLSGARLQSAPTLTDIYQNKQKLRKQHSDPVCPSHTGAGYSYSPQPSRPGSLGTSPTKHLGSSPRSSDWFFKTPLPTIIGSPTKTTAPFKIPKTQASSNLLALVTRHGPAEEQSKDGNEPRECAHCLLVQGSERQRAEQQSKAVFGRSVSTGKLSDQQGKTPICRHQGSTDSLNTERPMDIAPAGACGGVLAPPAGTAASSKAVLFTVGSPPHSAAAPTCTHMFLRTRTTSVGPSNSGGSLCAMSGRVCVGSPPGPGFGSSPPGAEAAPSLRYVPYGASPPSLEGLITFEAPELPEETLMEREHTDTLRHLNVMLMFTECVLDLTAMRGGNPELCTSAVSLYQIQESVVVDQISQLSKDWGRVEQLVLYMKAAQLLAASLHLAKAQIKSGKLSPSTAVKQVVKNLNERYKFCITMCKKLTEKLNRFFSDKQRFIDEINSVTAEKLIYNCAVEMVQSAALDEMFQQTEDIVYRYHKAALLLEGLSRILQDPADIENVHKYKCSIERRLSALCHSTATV

Chain of Serine/threonine-protein kinase B-raf (Homo sapiens) (P15056 whole entry, the tested form may be a part): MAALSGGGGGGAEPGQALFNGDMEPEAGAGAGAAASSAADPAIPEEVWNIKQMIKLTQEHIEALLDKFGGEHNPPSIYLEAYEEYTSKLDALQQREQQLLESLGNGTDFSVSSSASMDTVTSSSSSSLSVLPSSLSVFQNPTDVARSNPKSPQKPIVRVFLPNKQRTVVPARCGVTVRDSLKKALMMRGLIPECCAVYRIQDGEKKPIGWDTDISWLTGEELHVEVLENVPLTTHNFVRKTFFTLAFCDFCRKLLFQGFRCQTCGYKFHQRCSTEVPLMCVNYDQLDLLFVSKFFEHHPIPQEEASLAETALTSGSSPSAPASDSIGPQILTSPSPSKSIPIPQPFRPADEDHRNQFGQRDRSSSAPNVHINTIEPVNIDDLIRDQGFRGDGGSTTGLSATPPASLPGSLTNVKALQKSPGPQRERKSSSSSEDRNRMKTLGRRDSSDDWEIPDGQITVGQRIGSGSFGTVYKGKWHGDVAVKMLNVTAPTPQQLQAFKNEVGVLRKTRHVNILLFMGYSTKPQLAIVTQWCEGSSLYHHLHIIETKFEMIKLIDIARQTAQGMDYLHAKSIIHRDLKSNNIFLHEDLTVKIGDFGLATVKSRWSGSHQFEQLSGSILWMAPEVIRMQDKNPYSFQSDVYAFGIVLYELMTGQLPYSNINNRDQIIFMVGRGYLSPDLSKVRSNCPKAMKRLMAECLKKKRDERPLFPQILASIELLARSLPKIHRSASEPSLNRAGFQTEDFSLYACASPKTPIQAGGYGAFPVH
Chain of Cyclin-dependent kinase-like 3 (Homo sapiens) (Q8IVW4 whole entry, looked up, the tested form may be a part): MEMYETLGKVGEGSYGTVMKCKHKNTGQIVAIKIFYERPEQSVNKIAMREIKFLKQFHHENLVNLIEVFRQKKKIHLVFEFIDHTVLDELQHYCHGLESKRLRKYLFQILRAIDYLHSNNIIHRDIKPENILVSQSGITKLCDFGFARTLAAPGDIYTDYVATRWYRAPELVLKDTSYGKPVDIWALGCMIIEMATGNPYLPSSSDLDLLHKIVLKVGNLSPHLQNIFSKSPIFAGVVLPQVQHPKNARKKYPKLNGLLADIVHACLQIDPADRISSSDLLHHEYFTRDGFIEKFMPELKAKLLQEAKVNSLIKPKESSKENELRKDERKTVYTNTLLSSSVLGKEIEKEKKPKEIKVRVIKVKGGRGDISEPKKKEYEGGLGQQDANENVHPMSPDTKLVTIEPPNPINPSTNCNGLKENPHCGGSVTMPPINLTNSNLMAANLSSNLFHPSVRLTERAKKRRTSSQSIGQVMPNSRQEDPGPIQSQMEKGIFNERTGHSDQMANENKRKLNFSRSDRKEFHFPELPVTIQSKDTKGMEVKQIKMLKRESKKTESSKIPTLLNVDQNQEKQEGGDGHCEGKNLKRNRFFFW
Chain of Myosin light chain kinase (Homo sapiens) (Q32MK0 whole entry, the tested form may be a part): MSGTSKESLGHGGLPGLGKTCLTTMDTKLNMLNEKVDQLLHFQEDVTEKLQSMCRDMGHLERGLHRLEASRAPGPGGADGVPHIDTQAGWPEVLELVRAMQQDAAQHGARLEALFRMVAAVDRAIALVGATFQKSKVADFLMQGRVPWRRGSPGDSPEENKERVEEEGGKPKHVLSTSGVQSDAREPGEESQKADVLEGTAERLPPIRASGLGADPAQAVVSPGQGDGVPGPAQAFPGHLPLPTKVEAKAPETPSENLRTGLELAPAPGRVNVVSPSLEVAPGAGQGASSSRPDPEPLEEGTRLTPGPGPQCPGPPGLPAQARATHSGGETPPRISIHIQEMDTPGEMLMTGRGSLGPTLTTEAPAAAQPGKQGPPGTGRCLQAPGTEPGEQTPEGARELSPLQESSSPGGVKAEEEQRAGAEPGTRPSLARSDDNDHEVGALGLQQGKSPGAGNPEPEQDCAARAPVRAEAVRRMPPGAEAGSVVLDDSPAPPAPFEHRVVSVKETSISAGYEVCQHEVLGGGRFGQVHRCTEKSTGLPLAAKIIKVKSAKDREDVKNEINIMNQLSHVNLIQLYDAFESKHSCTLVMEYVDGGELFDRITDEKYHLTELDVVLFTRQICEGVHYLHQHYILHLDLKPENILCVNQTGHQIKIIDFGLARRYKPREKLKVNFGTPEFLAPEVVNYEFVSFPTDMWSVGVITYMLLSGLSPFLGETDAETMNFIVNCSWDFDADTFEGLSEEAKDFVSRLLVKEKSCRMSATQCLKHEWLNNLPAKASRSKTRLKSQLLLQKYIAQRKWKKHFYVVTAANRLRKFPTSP
Chain of Cytoplasmic tyrosine-protein kinase BMX (Homo sapiens) (P51813 whole entry, the tested form may be a part): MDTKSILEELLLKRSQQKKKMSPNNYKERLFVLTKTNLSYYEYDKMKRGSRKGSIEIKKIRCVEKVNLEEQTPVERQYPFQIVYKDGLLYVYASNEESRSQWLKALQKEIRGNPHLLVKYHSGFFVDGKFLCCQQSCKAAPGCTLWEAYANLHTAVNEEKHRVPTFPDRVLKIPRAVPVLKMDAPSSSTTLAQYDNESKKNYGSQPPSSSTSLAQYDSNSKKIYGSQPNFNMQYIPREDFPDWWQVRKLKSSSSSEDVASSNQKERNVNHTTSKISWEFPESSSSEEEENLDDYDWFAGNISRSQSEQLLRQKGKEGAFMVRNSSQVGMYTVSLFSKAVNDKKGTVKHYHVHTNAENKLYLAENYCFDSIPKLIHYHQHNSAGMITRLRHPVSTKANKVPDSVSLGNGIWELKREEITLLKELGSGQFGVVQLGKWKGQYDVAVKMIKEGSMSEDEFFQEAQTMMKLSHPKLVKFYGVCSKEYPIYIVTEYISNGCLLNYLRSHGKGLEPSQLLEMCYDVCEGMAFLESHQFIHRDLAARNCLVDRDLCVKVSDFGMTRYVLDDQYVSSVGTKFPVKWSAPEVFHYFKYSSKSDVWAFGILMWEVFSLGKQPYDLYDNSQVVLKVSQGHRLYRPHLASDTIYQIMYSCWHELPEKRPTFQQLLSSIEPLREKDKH
Chain of Dual specificity protein kinase TTK (Homo sapiens) (P33981 whole entry, the tested form may be a part): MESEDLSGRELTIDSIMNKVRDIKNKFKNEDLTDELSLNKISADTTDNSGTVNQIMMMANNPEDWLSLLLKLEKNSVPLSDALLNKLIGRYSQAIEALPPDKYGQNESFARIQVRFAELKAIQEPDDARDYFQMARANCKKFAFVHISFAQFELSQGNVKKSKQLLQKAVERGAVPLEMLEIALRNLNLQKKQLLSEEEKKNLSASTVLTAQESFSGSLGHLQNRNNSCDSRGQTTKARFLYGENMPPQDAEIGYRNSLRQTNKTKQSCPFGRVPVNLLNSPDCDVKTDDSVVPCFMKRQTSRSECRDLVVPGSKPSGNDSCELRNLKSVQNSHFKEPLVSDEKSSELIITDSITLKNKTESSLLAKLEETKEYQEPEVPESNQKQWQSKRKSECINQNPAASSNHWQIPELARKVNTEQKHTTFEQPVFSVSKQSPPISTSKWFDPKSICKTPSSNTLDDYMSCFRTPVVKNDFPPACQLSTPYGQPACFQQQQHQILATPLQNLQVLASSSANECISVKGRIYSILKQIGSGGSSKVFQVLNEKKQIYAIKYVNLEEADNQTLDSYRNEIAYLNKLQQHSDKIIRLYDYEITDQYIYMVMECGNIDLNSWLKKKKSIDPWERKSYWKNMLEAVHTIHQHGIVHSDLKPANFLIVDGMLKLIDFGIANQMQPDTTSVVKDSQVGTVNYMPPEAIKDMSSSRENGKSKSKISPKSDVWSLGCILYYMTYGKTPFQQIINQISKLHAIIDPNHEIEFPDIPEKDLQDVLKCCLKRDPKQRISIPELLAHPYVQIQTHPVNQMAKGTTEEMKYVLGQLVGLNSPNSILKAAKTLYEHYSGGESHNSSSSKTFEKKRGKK

COc1ccc(-c2cc3c(N[C@@H]4CC[C@](C)(N)C4(C)C)c(C(N)=O)cnn3c2)cn1 showed an Activity [1] of 80%, an Activity [2] of 100% and an Activity [3] of 26%. It also gave an Activity [4] of 98%, an Activity [5] of 81% and an Activity [6] of 100%. It also gave an Activity [7] of 97%, an Activity [8] of 100% and an Activity [9] of 100%. The Activity [10] was 18%, the Activity [11] was 100% and the IC50 (JAK3/JAK1) was 100 nM. The Activity [12] was 100%, the Activity [13] was 100% and the Activity [14] was 64%. It also gave an Activity [15] of 100%, an Activity [16] of 100% and an Activity [17] of 90%. The Activity [18] was 100%, the Activity [19] was 100% and the Activity [20] was 83%. The Activity [21] was 96%, the Activity [22] was 87% and the Activity [23] was 87%. It also gave an Activity [24] of 75%.

CC1(C)[C@H](Nc2c(C(N)=O)cnn3cc(-c4ccccc4)cc23)CC[C@]1(C)N showed an Activity [1] of 100%, an Activity [2] of 100% and an Activity [3] of 3.6%. It also gave an Activity [4] of 100%, an Activity [5] of 100% and an Activity [6] of 100%. It also gave an Activity [7] of 100%, an Activity [8] of 75% and an Activity [9] of 100%. It also gave an Activity [10] of 3.6%, an Activity [11] of 87% and an IC50 (JAK3/JAK1) of 200 nM. It also gave an Activity [12] of 99%, an Activity [13] of 92% and an Activity [14] of 100%. For the same compound, the Activity [15] was 100%, the Activity [16] was 100% and the Activity [17] was 78%. The Activity [18] was 100%, the Activity [19] was 100% and the Activity [20] was 100%. For the same compound, the Activity [21] was 100%, the Activity [22] was 88% and the Activity [23] was 100%. It also gave an Activity [24] of 36%.
